{"source": "BindingDB's records for doi:10.1016/j.bmcl.2019.126899", "about": "(Sanford Burnham Prebys Medical Discovery Institute, 2020)", "experiment": "Inhibition of CXCR6-mediated cell invasion in human SKHEP1 cells after 72 hrs by transwell assay", "data": [{"smiles": "COc1cc(C(=O)N[C@@H]2C[C@H]3CCC[C@@H](C2)N3Cc2nc3c(C(F)(F)F)cccc3s2)cc(OC)c1OC", "values": [{"measurement": "IC50", "value": 2100, "unit": "nM"}]}]}
